According to PubChem BioAssay (NCI):
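1) Cells in 96-well plates. 2) Compound, 48 h, 5 concentrations. 3) Linear interpolation between surrounding doses. 4) Unreached endpoint = highest concentration. Abbreviation: GI50, concentration required for 50% inhibition of growth. At the TGI there is no net growth.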

Key:
Test in all cases: NCI anticancer screen, dose series, 48 h
RXF 393 renal = test system: RXF 393 renal
SW-620 colon = test system: SW-620 colon
SF-539 CNS = test system: SF-539 CNS
SK-MEL-28 melanoma = test system: SK-MEL-28 melanoma
K-562 leukemia = test system: K-562 leukemia
OVCAR-5 ovarian = test system: OVCAR-5 ovarian
OVCAR-4 ovarian = test system: OVCAR-4 ovarian
SK-MEL-2 melanoma = test system: SK-MEL-2 melanoma
SR leukemia = test system: SR leukemia

Row | Compound | TGI (RXF 393 renal) [µM] | TGI (SW-620 colon) [µM] | TGI (SF-539 CNS) [µM] | TGI (SK-MEL-28 melanoma) [µM] | TGI (K-562 leukemia) [µM] | TGI (OVCAR-5 ovarian) [µM] | TGI (OVCAR-4 ovarian) [µM] | TGI (SK-MEL-2 melanoma) [µM] | TGI (SR leukemia) [µM] | GI50 (SW-620 colon) [µM] | GI50 (SF-539 CNS) [µM] | GI50 (OVCAR-5 ovarian) [µM] | GI50 (SK-MEL-28 melanoma) [µM] | GI50 (SK-MEL-2 melanoma) [µM] | GI50 (OVCAR-4 ovarian) [µM] | GI50 (K-562 leukemia) [µM] | GI50 (RXF 393 renal) [µM] | GI50 (SR leukemia) [µM]
1 | COC12OCCN(C)C1=CC(=O)C1(C)N=NCC12 (stereo not given) | > 100 | > 100 | > 100 | > 100 | > 100 | – | – | – | – | – | – | – | – | – | – | – | – | –
2 | CC(C)c1ccc(/C=C/c2cc(C(=O)NNC(=O)NC3CCCCC3)nc(=S)[nH]2)cc1 | > 100 | > 100 | > 100 | > 100 | – | > 100 | > 100 | – | – | – | – | – | – | – | – | – | – | –
3 | COc1cccc(C2SCc3nc4ccccc4n32)c1 (stereo not given) | > 100 | > 100 | > 100 | > 100 | > 100 | > 100 | > 100 | > 100 | – | – | – | – | – | – | – | – | – | –
4 | Cc1ccc(S(=O)(=O)OCCOCCOCCOCCOCCOS(=O)(=O)c2ccc(C)cc2)cc1 | > 100 | > 100 | – | > 100 | > 100 | > 100 | > 100 | > 100 | 90.9 | – | – | – | – | – | – | – | – | –
5 | COc1ccc2c(c1)[n+]([O-])c(/C(C)=N/NC(=O)c1ccccc1O)c(C)[n+]2[O-] | > 100 | > 100 | > 100 | > 100 | > 100 | > 100 | > 100 | > 100 | – | – | – | – | – | – | – | – | – | –
6 | O=C1C(c2ccccc2)=C(c2ccccc2)C(c2ccc(Sc3ccc(C4=C(c5ccccc5)C(=O)C(c5ccccc5)=C4c4ccccc4)cc3)cc2)=C1c1ccccc1 | > 100 | > 100 | > 100 | – | > 100 | > 100 | > 100 | > 100 | > 100 | – | – | – | – | – | – | – | – | –
7 | COC(=O)C1[C@H](c2ccc3c(c2)OCO3)OC(=O)[C@]1(C(=O)OC)C(=O)c1ccc(OC)c(OC)c1 (stereo not given in full) | – | > 100 | – | – | > 100 | > 100 | > 100 | 79.9 | > 100 | – | – | – | – | – | – | – | – | –
8 | O=C(CSSCC(=O)Nc1ccc(Br)cc1)Nc1ccc(Br)cc1 | 33.2 | 29.4 | 31.6 | 32.4 | > 100 | 41.7 | 35.4 | – | 37.9 | – | – | – | – | – | – | – | – | –
9 | CCOC(=O)CN(c1ccccc1)c1nc(=[N+](C)C)ss1 | > 100 | > 100 | > 100 | > 100 | > 100 | – | 32.7 | 55.9 | 41.9 | – | – | – | – | – | – | – | – | –
10 | N#CCc1nnc(N)o1 | – | > 100 | > 100 | > 100 | > 100 | – | – | > 100 | > 100 | – | – | – | – | – | – | – | – | –
11 | CC[PH+](CC)CC.CC[PH+](CC)CC.[Au] | – | 15.6 | 25.3 | 16.9 | 41.1 | 41.5 | 25.1 | 15.8 | – | 5.13 | 8.3 | 25.8 | 3.88 | 2.73 | 12.5 | 5.98 | – | –
12 | CC1=C(C(=O)CC(=O)C(=O)Nc2ccc(C)c(C)c2)Sc2ccccc2N1 | > 100 | > 100 | > 100 | > 100 | – | > 100 | > 100 | – | – | – | – | – | – | – | – | – | – | –
13 | CCOC(=O)C1SC(=Nc2ccc(Cl)cc2Cl)N=C1C (stereo not given) | > 100 | > 100 | > 100 | > 100 | > 100 | > 100 | 70.1 | > 100 | – | – | – | – | – | – | – | – | – | –
14 | NC(N)=N/N=C/c1c(-c2cccnc2)nc2sc(Cl)cn12 | 36.7 | 20.7 | 26.3 | – | 43.3 | 25.3 | – | > 100 | > 100 | 6.13 | 13.4 | 12.7 | – | 42.8 | – | 19.1 | 17.2 | 17.1
15 | O=C1C(=O)N(c2ccc(Cl)cc2)C(=O)C(=Nc2cccc3c(=O)[nH][nH]c(=O)c23)C1c1nc2ccccc2o1 (stereo not given) | – | > 100 | > 100 | > 100 | > 100 | > 100 | > 100 | > 100 | > 100 | – | – | – | – | – | – | – | – | –
16 | CN(/N=C\c1ccnc2ccccc12)c1ccccc1 | 77.3 | 51.4 | 71.6 | 82.7 | 51.4 | 45.6 | 89.4 | 38.5 | – | – | – | – | – | – | – | – | – | –
17 | Cc1ccc(C2=Nc3ccccc3S(=O)C(c3ccc4c(c3)OCO4)C2)cc1 (stereo not given) | 32.1 | 34.5 | 46.3 | 89.9 | 98.8 | – | > 100 | 41.6 | > 100 | – | – | – | – | – | – | – | – | –
18 | C=C1CC2(CCS(=O)(=O)c3ccccc32)OC1=O (stereo not given) | – | 11.4 | 18.1 | 27.8 | 34.4 | 27.3 | 26.7 | 23.6 | – | – | – | – | – | – | – | – | – | –
19 | c1ccc2c(CNCCCCCCCCNCc3cccc4ccccc34)cccc2c1 | 3.13 | 3.29 | 3.04 | 3.32 | 3.73 | 4.14 | 5.28 | 3.03 | – | – | – | – | – | – | – | – | – | –
20 | O=C(O)CN(c1ccc(F)cc1)S(=O)(=O)c1ccccc1 | > 100 | > 100 | > 100 | > 100 | > 100 | > 100 | > 100 | > 100 | – | – | – | – | – | – | – | – | – | –
